{
  "source": "patent US20220106282A1",
  "about": "“TREATMENT FOR BREAST CANCER, INCLUDING TRIPLE-NEGATIVE BREAST CANCER” (priority 2018, published 2022)",
  "key": {"[1]": {"test_system": "MCF-7 breast cancer cells", "settings": "RU 2619457; cited from earlier work"}, "ovariectomized rats": {"test_system": "ovariectomized rats", "assay": "Biochemical parameters of ovariectomized rats", "assay_type": "in vivo, rat", "settings": "ovariectomised rats, EE 0.1 mg/kg bw"}, "uterine body [2]": {"test_system": "uterine body", "assay": "Hormonal effect: uterine body weight in tumor-bearing mice", "assay_type": "in vivo, mouse", "settings": "Tamoxifen-1 group, 4 mg/kg; estrous phase E"}, "[3]": {"assay": "Hormonal effect: uterine body weight in tumor-bearing mice", "assay_type": "in vivo, mouse", "settings": "Tamoxifen-1 group, 4 mg/kg"}, "[4]": {"test_system": "breast tumors in female FVB mice transgenic for HER-2/neu", "assay": "Antitumor activity on model of multiple breast tumors in HER-2/neu transgenic mice", "settings": "for Average total volume of tumors in mice (M) / Average volume of tumors present at the beginning of the experiment (M): i.g. daily", "procedure": "Two adenocarcinoma subtypes can be differentiated, in particular ER+, PR−, and ER−, PR− [2].\nThe study was carried out in female FVB mice transgenic for HER-2/neu by conventional category; the strain was obtained from the mouse bank Charles River Laboratories (Italy). At the beginning of the study the animals were 21-41 weeks old having weight of 25 to 30 g.\nThe study medicament was administered i.g. using a metal atraumatic gavage (with the procedure corresponds to the oral route of administration in clinical settings). The medicament was administered in a single daily dose (20 mg/kg of body weight) and 5-fold daily dose of 100 mg/kg of body weight. Ex tempore solutions of the medicament for administration were prepared in olive oil (refined olive oil supplemented with unrefined extra virgin olive oil available under Global Village “Clasico” trademark, lot L:183351116, expiry date 26 Apr. 2020, BAIEO, Spain). The administered volume was 0.1 ml per 10 g of a mouse body weight (0.2 ml of a ready-to-use formulation for a mouse of 20 g). The medicament administration was started 24 hours after the randomization. The duration of the administration course was 27-28 days.\nThis dose corresponds to a human daily dose of 20 mg/kg.\nThe control groups were given the olive oil (placebo).\nThe evaluation criteria included the clinical observation data, animals body weights, time of death (if applicable), tumor growth over time, pathomorphological examination data (verification of a neoplasm during autopsy, assessment of toxic effects by macroscopic presentation of changes in the internal organs).\nThe animals body weights were recorded before the first administration of the medicaments and then twice per week using a verified high-speed electronic laboratory balance Ohaus Scout Pro (USA) with a maximum load of 2000 g and a measurement step of 0.1 g.\nMacroscopically detectable tumor nodes were measured in animals once per week during weighing process. Two linear dimensions including the largest one and the largest rectangular to the former were recorded for each of the nodes. The largest dimension was taken as a length (a) and the second dimension as a width (b) of the tumor nodes. A tumor volume was calculated by the expression as follows: […]\nThe efficacy of the therapy was assessed by recording a change in the average tumor volume, tumor growth inhibition (TGI), and the average total tumor volumes and its change over time in each of the mice.\nThe percent of tumor growth inhibition was calculated by the expression as follows:\nTGI=(Vctrl−Vexp)/Vctrl×100(%),\nwhere Vctrl is an average tumor volume in a control group, and Vexp is an average tumor volume in an experimental group.\nThe primary data from individual forms were transferred to Microsoft Excel 2007 books. The group arithmetic average (M) and standard deviation (m) were calculated for all quantitative data. The statistical analysis was performed using the statistical software GraphPad Prism 6.0. The differences between the groups were assessed using ANOVA regression analysis and the Fisher's exact test."}, "uterine body [5]": {"test_system": "uterine body", "assay": "Hormonal effect: uterine body weight in tumor-bearing mice", "assay_type": "in vivo, mouse", "settings": "Tamoxifen-1 group, 4 mg/kg", "procedure": "To estimate the hormonal effect of the medicament, the weight of the uterine body without uterine horns was measured (Table 9)."}, "[6]": {"settings": "first class: high solubility, high permeability, second class: low solubility; cited from earlier work"}, "uterus": {"test_system": "uterus", "settings": "literature / prior art; cited from earlier work"}, "[7]": {"settings": "Tamoxifen group, dose 1.4 mg/kg, Day 6"}, "[8]": {"settings": "Tamoxifen group, dose 1.4 mg/kg, Day 13"}, "[9]": {"settings": "Tamoxifen group, dose 1.4 mg/kg, Day 20"}, "[10]": {"settings": "Tamoxifen group, dose 1.4 mg/kg, Day 27"}, "[11]": {"settings": "Tamoxifen group, dose 1.4 mg/kg, Day −1"}, "[12]": {"settings": "Tamoxifen group, dose 1.4 mg/kg, Day 27 vs Day −1"}, "[13]": {"settings": "Tamoxifen-1 group, 4 mg/kg i.g. daily, end of study"}},
  "note": "Where “and” joins values, the source holds several entries; their conditions need not be identical. Equal entries are not always repeated. Marks after values point to notes of the source that are not given here.",
  "data": [
    {"smiles": "C[C@H]1Oc2cc(OS(N)(=O)=O)ccc2C2=C1C1=CCC[C@H](OS(N)(=O)=O)[C@@]1(C)CC2", "note": "[3,17αβ-disulfamoyloxy-7β-methyl-D-homo-6-oxa-estra-1,3,5(10), 8,14-pentaen]", "values": [
      {"measurement": "Growth of MCF-7 breast cancer cells", "setting": "[1]", "value": "inhibitor of the growth"}
    ]},
    {"smiles": "C#C[C@]1(O)CC[C@H]2[C@@H]3CCc4cc(O)ccc4[C@H]3CC[C@@]21C", "note": "[EE, 17α-ethinyl estradiol, reference compound]", "values": [
      {"measurement": "Uterus weight", "setting": "ovariectomized rats", "value": "164 ± 11", "unit": "mg/100 g bw"}
    ]},
    {"smiles": "CC/C(=C(\\c1ccccc1)c1ccc(OCCN(C)C)cc1)c1ccccc1", "note": "[Tamoxifen, reference compound]", "values": [
      {"measurement": "Uterine body weight", "setting": "uterine body [2]", "value": "31 ± 2", "unit": "mg"},
      {"measurement": "Body weight", "setting": "[3]; all mice", "value": "28.2 ± 1.0", "unit": "g"},
      {"measurement": "Body weight", "setting": "[3]; estrous phase D", "value": 30.5, "unit": "g"},
      {"measurement": "Body weight", "setting": "[3]; estrous phase E", "value": "28.0 ± 1.0", "unit": "g"},
      {"measurement": "Average total volume of tumors in mice (M)", "setting": "[4]; [7]", "value": 0.76, "unit": "cm^3"},
      {"measurement": "Average volume of tumors present at the beginning of the experiment (M)", "setting": "[4]; [7]", "value": 0.26, "unit": "cm^3"},
      {"measurement": "Average total volume of tumors in mice (M)", "setting": "[4]; [8]", "value": 0.88, "unit": "cm^3"},
      {"measurement": "Average volume of tumors present at the beginning of the experiment (M)", "setting": "[4]; [8]", "value": 0.3, "unit": "cm^3"},
      {"measurement": "Average total volume of tumors in mice (M)", "setting": "[4]; [9]", "value": 1.38, "unit": "cm^3"},
      {"measurement": "Average volume of tumors present at the beginning of the experiment (M)", "setting": "[4]; [9]", "value": 0.47, "unit": "cm^3"},
      {"measurement": "Average total volume of tumors in mice (M)", "setting": "[4]; [10]", "value": 1.68, "unit": "cm^3"},
      {"measurement": "Average volume of tumors present at the beginning of the experiment (M)", "setting": "[4]; [10]", "value": "0.58* cm^3"},
      {"measurement": "Average total volume of tumors in mice (M)", "setting": "[4]; [11]", "value": 0.66, "unit": "cm^3"},
      {"measurement": "Average volume of tumors present at the beginning of the experiment (M)", "setting": "[4]; [11]", "value": 0.23, "unit": "cm^3"},
      {"measurement": "TGI (average total tumor volume)", "setting": "[4]; [7]", "value": "−12", "unit": "%"},
      {"measurement": "TGI (average tumor volume)", "setting": "[4]; [7]", "value": 13, "unit": "%"},
      {"measurement": "TGI (average total tumor volume)", "setting": "[4]; [8]", "value": "−32", "unit": "%"},
      {"measurement": "TGI (average tumor volume)", "setting": "[4]; [8]", "value": 46, "unit": "%"},
      {"measurement": "TGI (average total tumor volume)", "setting": "[4]; [9]", "value": 9, "unit": "%"},
      {"measurement": "TGI (average tumor volume)", "setting": "[4]; [9]", "value": 29, "unit": "%"},
      {"measurement": "TGI (average total tumor volume)", "setting": "[4]; [10]", "value": 18, "unit": "%"},
      {"measurement": "% of change from baseline (average total tumor volume)", "setting": "[4]; [12]", "value": 155, "unit": "%"},
      {"measurement": "% of change to the initial value (average tumor volume)", "setting": "[4]; [12]", "value": 152, "unit": "%"},
      {"measurement": "TGI (average total tumor volume)", "setting": "[4]; [11]", "value": "−57", "unit": "%"},
      {"measurement": "TGI (average tumor volume)", "setting": "[4]; [11]", "value": "−28", "unit": "%"},
      {"measurement": "Average volume of new tumors at the end of the observation period (M)", "setting": "[4]; Tamoxifen-1 group, 4 mg/kg i.g. daily, 4 mg/kg", "value": "0.16±0.05 cm^3 and 0.16 cm^3"},
      {"measurement": "Absolute number of new tumors", "setting": "[4]; [13]", "value": 21},
      {"measurement": "Frequency of tumor stabilizations", "setting": "[4]; [13]", "value": 10, "unit": "%"},
      {"measurement": "Average volume of new tumors, % less than that of the control group", "setting": "[4]; Tamoxifen-1 group, end of observation", "value": 52, "unit": "%"},
      {"measurement": "Uterine body weight", "setting": "uterine body [5]; all mice", "value": "32 ± 2", "unit": "mg"},
      {"measurement": "Uterine body weight", "setting": "uterine body [5]; estrous phase D", "value": 34, "unit": "mg"}
    ]},
    {"smiles": "CC(C)(C#N)c1cc(Cn2cncn2)cc(C(C)(C)C#N)c1", "note": "[anastrazole]", "values": [
      {"measurement": "BCS class", "setting": "[6]", "value": "first class"}
    ]},
    {"smiles": "C[C@]12CC[C@@H]3c4ccc(OS(N)(=O)=O)cc4CC[C@H]3[C@@H]1CCC2=O", "note": "[estrone sulfamate]", "values": [
      {"measurement": "Uterotropic activity", "setting": "uterus", "value": "strong uterotropic activity"}
    ]},
    {"smiles": "N#Cc1ccc(C(c2ccc(C#N)cc2)n2cncn2)cc1", "note": "[letrozole]", "values": [
      {"measurement": "BCS class", "setting": "[6]", "value": "first class"}
    ]}
  ]
}
